What was measured:
[1] = molecular target: T1, Trx system (thioredoxin/thioredoxin reductase) (Homo sapiens, UniProt Q16881); assay: Thioredoxin/thioredoxin reductase insulin reduction assay; type: biochemical
T1 sequence (Q16881 151-649 limits assumed): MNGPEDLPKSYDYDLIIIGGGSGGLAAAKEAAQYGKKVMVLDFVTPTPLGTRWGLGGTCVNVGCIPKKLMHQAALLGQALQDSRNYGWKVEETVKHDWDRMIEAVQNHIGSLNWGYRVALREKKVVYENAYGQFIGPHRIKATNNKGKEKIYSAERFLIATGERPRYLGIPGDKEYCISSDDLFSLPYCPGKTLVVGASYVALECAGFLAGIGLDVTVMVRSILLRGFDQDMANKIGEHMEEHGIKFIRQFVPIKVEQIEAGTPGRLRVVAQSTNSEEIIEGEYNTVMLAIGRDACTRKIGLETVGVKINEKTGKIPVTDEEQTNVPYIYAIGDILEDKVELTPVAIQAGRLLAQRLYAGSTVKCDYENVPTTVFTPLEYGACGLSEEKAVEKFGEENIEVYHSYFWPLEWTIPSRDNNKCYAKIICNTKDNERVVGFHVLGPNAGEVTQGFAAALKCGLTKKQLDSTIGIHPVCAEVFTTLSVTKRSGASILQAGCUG
Description: Thioredoxin/thioredoxin reductase inhibition was measured using the insulin reduction assay (Stevens, M. F. G., Pallis, M., Bradshaw, T. D., Westwell, A. D., Grundy, M., Russell, N, “Induction of apoptosis without redox catastrophe by thioredoxin-inhibitory compounds”, Biochem. Pharmacol. (2003) 66, 1695-1705). […] The first part of the assay involves TrxR reducing oxidized Trx via NADPH. The reduced Trx then reduces disulfide bonds in the insulin, leaving exposed thiol groups, as summarized by the Trx reaction scheme.
The addition of dithionitrobenzoic acid (DTNB) to the free thiol groups of the insulin cleaves the disulfide bond in the DTNB which gives rise to a yellow colour (DTNB reaction scheme). The yellow colour is observed under basic conditions due to the conjugation of electrons between the thiolate anion and the nitro group of thionitrobenzoic acid (TNB). The level of thioredoxin/thioredoxin reductase inhibitory activity is […] proportional to the intensity of the yellow colour.
Addition of DTNB to reduced insulin produces thionitrobenzoic acid (TNB) and a mixed insulin disulfide. DTNB has very little absorbance, but under mild basic conditions TNB forms an anion that gives an intense yellow colour at 412 nm.
Synthesized compounds were tested for thioredoxin/thioredoxin reductase activity using the thioredoxin/thioredoxin reductase insulin assay described above under the heading “Assays”. The compounds were also tested for antiproliferative activity using the MTT assay described above under the heading “Assays”. Theoretical C log P values for the compounds were calculated using ChemDraw. The C log P of a compound is the logarithm of the compound's partition coefficient between n-octanol and water log(coctanol/cwater) and represents a measure of the compound's hydrophilicity and hydrophobicity. […]

[2] = system: HPV-16 immortalized keratinocyte cell line (CCD-1106 KERTr); assay: cells; type: cell-based; settings: Homo sapiens; CCD-1106 KERTr keratinocytes; read-out: MTT GI50;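 also: growth inhibition read as spectrophotometric formazan colour from mitochondrial dehydrogenase cleavage of MTT, proportional to viable cell number, modelling psoriatic hyperproliferation, lower values mean stronger antiproliferative activity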
Description: The assay is based on the ability of a mitochondrial dehydrogenase enzyme to cleave the tetrazolium rings of the yellow MTT to form dark blue formazan crystals (MTT reaction scheme). These crystals are mostly impermeable to cell membranes and, consequently, they accumulate in healthy viable cells. The addition of detergent solubilizes the cells, which results in the liberation of purple formazan crystals. The number of viable cells is directly proportional to the level of purple formazan produced. This colour change can be measured by a spectrophotometer enabling quantification of changes in cellular proliferation. Compound activity measured by the MTT assay (or other proliferation related assay) may be given as a GI50 value.
A human papilloma virus-16 (HPV-16) immortalized keratinocyte cell line (CCD-1106 KERTr) was used in the MTT cell viability assay.
Antiproliferative activity is indicated by the MTT GI50 (μM), where a lower value indicates higher activity.

human T-cells [3] = assay: CFSE proliferation assay; type: cell-based; settings: 2000 ng per mL
Text: Carboxyfluorescein diacetate succinimidyl ester (56a) (CFSE) is a cell permeable compound which readily enters the cell, upon which, the ester group is cleaved by esterases to produce a fluorescent compound (known as carboxyfluorescein succinimidyl ester (56b)) that is less cell permeable (see CFSE reaction scheme). As cells divide, the carboxyfluorescein succinimidyl ester (56b) is split equally between the daughter cells, which results in reduced carboxyfluorescein succinimidyl ester (56b) signal detection with each subsequent cell division (FIG. 2). The attenuation of the signal gives an indication of the proliferative ability of the cells.
For a compound to show good antiproliferative properties in the CFSE assay, the majority of the cells should remain in the parent state (as per division 0 in FIG. 2). […] As cell division occurs, the carboxyfluorescein succinimidyl ester (56b) is split equally between daughter cells, which results in attenuated signal detection.
CFSE labeled T-cells were treated with compound (33f) or control (no compound added). In the control experiment the majority of cells reached the fifth division (proliferation index of 5.62). […] The PI is the sum of the cells in all generations divided by the calculated number of the original parent cells.

human T-cells [4] = system: human T-cells
Description: (§1) To determine if the analogues were causing apoptosis or necrosis, an Annexin V-Pe assay was used. […] The annexin V is attached to a fluorescent probe that is used for detection by flow cytometry. […] The assay is also used in conjugation with 7-aminoactinomycin D (7-AAD). […] As the plasma membrane becomes increasingly permeable, 7-AAD can move readily across the cell membrane and bind to cellular DNA, thereby providing a way of identifying cells that have lost their membrane integrity; however, when the cell is viable or undergoing early stages of apoptosis, it is impermeable to 7-AAD.

in vitro = settings: human, Viable Cells (%)
Description: as §1

human T-cells [5] = assay: Annexin V-Pe assay (apoptosis/necrosis)
Description: as §1

## Cc1ccc(S(=O)(=O)Nc2ccc(NC(=O)c3ccco3)cc2NS(=O)(=O)c2ccc(C)cc2)cc1 [Compound (33f), N-(3,4-bis-(toluene-4-sulfonylamino)phenyl)-2-furamide]
[1]; compound at 500 μM, read-out: Inhib. (%) Trx Syst. at 500 μM
  inhibition at 500 µM: 93.7%
[1]; insulin reduction assay, read-out: Trx System IC50
  IC50: 37 µM
[2]
  GI50: 10.8 µM
Human T-cells [3]; control: majority reached the fifth division
  division state of CFSE labeled T-cells: the majority of cells remained in the parent state
Human T-cells [3]; CFSE labeled T-cells, control 5.62
  proliferation index (PI): 1.36
Human T-cells [4]
  Viable Cells (%): 46%
In vitro
  viability: 37%
Human T-cells [5]; annexin V positive, 7-AAD negative, control 29
  Early Apoptotic Cells (%): 31%
Human T-cells [5]; stain with both reagents, control 15
  Late Apoptotic/Necrotic Cells (%): 13%

From patent US9856230B2 (University of Sunderland, priority 2012, dated 2018)
